Consider 39 compounds from patent US20230047905A1, “COMPOUNDS AND COMPOSITIONS FOR TREATING CONDITIONS ASSOCIATED WITH STING ACTIVITY” (IFM Due, Inc., priority 2018, published 2023).

The test has as its system Human STING. Kind of test: STING reporter assay (luciferase) in THP1-Dual KO-IFNAR2 cells activated with 2'3'cGAMP. To be noted: 15 μM 2'3'cGAMP. Format: cell-based. The method, then: STING Pathway Modulation by the Compounds Described Herein was Measured Using THP1-Dual™ Cells (KO-IFNAR2).
THP1-Dual™ KO-IFNAR2 Cells (obtained from invivogen) were maintained in RPMI, 10% FCS, 5 ml P/S, 2 mM L-glut, 10 mM Hepes, and 1 mM sodium pyruvate. Compounds were spotted in empty 384 well tissue culture plates (Greiner 781182) by Echo for a final concentration of 0.0017-100 μM. Cells were plated into the TC plates at […], 2×10E6 cells/mL. For activation with STING ligand, 2′3′cGAMP (MW 718.38, obtained from Invivogen), was prepared in Optimem media.
The following solutions were prepared for each 1×384 plate: • Solution A: 2 mL Optimem with one of the following stimuli: • 60 uL of 10 mM 2′3′cGAMP ->150 μM stock • Solution B: 2 mL Optimem with 60 μL Lipofectamine 2000->Incubate 5 min at RT
2 mL of solution A and 2 ml Solution B was mixed and incubated for 20 min at room temperature (RT). 20 μL of transfection solution (A+B) was added on top of the plated cells, with a final 2′3′cGAMP concentration of 15 μM. The plates were then centrifuged immediately at 340 g for 1 minute, after which they were incubated at 37° C., 5% CO2, >98% humidity for 24h. Luciferase reporter activity was then measured. EC50 values were calculated by using standard methods known in the art.
Luciferase reporter assay: 10 μL of supernatant from the assay was transferred to white 384-plate with flat bottom and squared wells. One pouch of QUANTI-Luc™ Plus was dissolved in 25 mL of water. 100 μL of QLC Stabilizer per 25 mL of QUANTI-Luc™ Plus solution was added. 50 μL of QUANTI-Luc™ Plus/QLC solution per well was then added. Luminescence was measured on a Platereader (e.g., Spectramax I3X (Molecular Devices GF3637001)).
Luciferase reporter activity was then measured. EC50 or IC50 values were calculated by using standard methods known in the art.

[1] abbreviates: Homo sapiens, THP1-Dual, 24 h, class symbols.
Setting [2] is: Homo sapiens, THP1-Dual, 24 h, given as numeric bound.

In turn, `CCCCc1ccc(S(=N)(=O)Nc2ccc3[nH]ccc3c2)cc1` (stereo not drawn) [Compound 53] came in with an IC50 under setting [1] of 5 to 100 µM.
In turn, `CCCCc1ccc(S(N)(=O)=Nc2c[nH]nc2-c2ccccc2)cc1` (stereo not drawn) [Compound 113] registered an IC50 under setting [1] of 5 to 100 µM.
Under setting [1], `NS(=O)(=Nc1c[nH]c2ccccc12)c1ccc(F)cc1` (stereo not drawn) [Compound 108] registered an IC50 of 5 to 100 µM.
In turn, `NS(=O)(=Nc1c[nH]c2cc(F)c(F)cc12)c1ccc(C(F)(F)F)cc1` (racemic) [Compound 2a] gave an IC50 (24h, class symbols) of 0.2 to 1 µM.
For the compound `N#Cc1ccc2[nH]cc(N=S(N)(=O)c3ccc(C(F)(F)F)cc3)c2c1` (racemic) [Compound 5a], the IC50 under setting [1] was 5 to 100 µM.
Still for that read-out and setting: with `N#Cc1ccc2[nH]cc(N=S(N)(=O)c3ccc(C4CC4)cc3)c2c1` (racemic) [Compound 115a] the figure was 5 to 100 µM; with `Cc1ccccc1S(N)(=O)=Nc1c[nH]c2ccccc12` (stereo not drawn) [Compound 110], 5 to 100 µM; with `N#Cc1cnc2[nH]cc(N=S(N)(=O)c3ccc(C(F)(F)F)cc3)c2c1` (racemic) [Compound 114a], 5 to 100 µM.
For the compound `N#Cc1cnc2[nH]cc(N=S(N)(=O)c3ccc(C(F)(F)F)cc3)c2c1` (racemic) [Compound 114b], the IC50 under setting [2] is no less than 100 µM.
As for `N[S@@](=O)(=Nc1c[nH]c2ccccc12)c1ccc(C(F)(F)F)cc1` (single isomer, unassigned) [Compound 1b, (R or S)—N-(1H-indol-3-yl)-4-(trifluoromethyl)benzenesulfonimidamide], the IC50 under setting [1] lay within 0.2 to 1 µM.
`Cc1ccccc1S(N)(=O)=Nc1c[nH]c2ccccc12` (racemic) [Compound 110a] had an IC50 (24h, class symbols) of 5 to 100 µM.
`CS(=O)(=O)n1cc(N=S(N)(=O)c2ccc(C(F)(F)F)cc2)c2ccccc21` (stereo not drawn) [Compound 104] registered an IC50 under setting [1] of 5 to 100 µM.
Regarding `NS(=O)(=Nc1c[nH]c2ncc(F)cc12)c1ccc(C(F)(F)F)cc1` (racemic) [Compound 117a], the IC50 under setting [1] was in the range of 5 to 100 µM.
For the compound `Cc1ccc(S(N)(=O)=Nc2c[nH]c3ccccc23)cc1` (racemic) [Compound 111b], the IC50 (24h, class symbols) lay in the range of 5 to 100 µM.
Turning to `NS(=O)(=Nc1c[nH]c2ccccc12)c1ccc(F)cc1` (racemic) [Compound 108a], the IC50 under setting [1] lay within 5 to 100 µM.
Under setting [2], `NS(=O)(=Nc1c[nH]nc1-c1ccccc1)c1ccc(C(F)(F)F)cc1` (racemic) [Compound 119a] had an IC50 of no less than 100 µM.
`CCOC(=O)NS(=O)(=Nc1c[nH]c2ccccc12)c1ccc(C(F)(F)F)cc1` (stereo not drawn) [Compound 103] came in with an IC50 under setting [1] of 5 to 100 µM.
Regarding `NS(=O)(=Nc1c[nH]c2ccccc12)c1ccc(Cl)cc1` (stereo not drawn) [Compound 109], the IC50 under setting [1] lay in the range of 1 to 5 µM.
The compound `CCCCc1ccc(S(N)(=O)=Nc2c[nH]nc2-c2ccccc2)cc1` (racemic) [Compound 113a] showed an IC50 under setting [1] of 5 to 100 µM.
Regarding `N#Cc1ccc2[nH]cc(N=S(N)(=O)c3ccc(C4CC4)cc3)c2c1` (stereo not drawn) [Compound 115], the IC50 under setting [1] lay within 5 to 100 µM.
Regarding `CC(C)OC(=O)NS(=O)(=Nc1c[nH]c2ccccc12)c1ccc(C(F)(F)F)cc1` (stereo not drawn) [Compound 102], the IC50 under setting [1] lay in the range of 5 to 100 µM.
Where the note is “24h, class symbols”, `NS(=O)(=Nc1c[nH]c2cc(F)c(F)cc12)c1ccc(C(F)(F)F)cc1` (racemic) [Compound 2b] came in with an IC50 of 1 to 5 µM.
`CNS(=O)(=Nc1c[nH]c2ccccc12)c1ccc(C(F)(F)F)cc1` (stereo not drawn) [Compound 112, N′-(1H-indol-3-yl)-N-methyl-4-(trifluoromethyl)benzenesulfonimidamide]: under setting [1], the IC50 was in the range of 5 to 100 µM.
Still for that read-out and setting: with `NS(=O)(=Nc1c[nH]c2ccccc12)c1ccc(Cl)cc1` (racemic) [Compound 109a] the figure was 1 to 5 µM; with `Cc1cccc(S(N)(=O)=Nc2c[nH]c3ccccc23)c1` (stereo not drawn) [Compound 106], 5 to 100 µM.
Under setting [1], `NS(=O)(=Nc1c[nH]c2ncc(F)cc12)c1ccc(C(F)(F)F)cc1` (stereo not drawn) [Compound 117] registered an IC50 of 5 to 100 µM.
In turn, `COC(=O)NS(=O)(=Nc1c[nH]c2ccccc12)c1ccc(C(F)(F)F)cc1` (stereo not drawn) [Compound 107, methyl (N-(1H-indol-3-yl)-4-(trifluoromethyl)phenylsulfonimidoyl)carbamate] gave a concentration for half-maximal inhibition (IC50) under setting [1] of 5 to 100 µM.
Under setting [1], `CN(C)S(=O)(=Nc1c[nH]c2ccccc12)c1ccc(C(F)(F)F)cc1` (stereo not drawn) [Compound 36, N′-(1H-indol-3-yl)-N,N-dimethyl-4-(trifluoromethyl)benzenesulfonimidamide] yielded an IC50 of 5 to 100 µM.
With `CCCCc1ccc(S(N)(=O)=Nc2c[nH]c3ncc(F)cc23)cc1` (racemic) [Compound 116], the IC50 under setting [1] lay within 5 to 100 µM.
The same measure, in the same setting: with `N[S@](=O)(=Nc1c[nH]c2ccccc12)c1ccc(C(F)(F)F)cc1` (single isomer, unassigned) [Compound 1a, (S or R)—N-(1H-indol-3-yl)-4-(trifluoromethyl)benzenesulfonimidamide] the figure was 1 to 5 µM.
`Cc1ccc(S(N)(=O)=Nc2c[nH]c3ccccc23)cc1` (racemic) [Compound 111a] displayed an IC50 (24h, class symbols) of 1 to 5 µM.
Take `CNS(=O)(=Nc1cn(C)c2ccccc12)c1ccc(C(F)(F)F)cc1` (stereo not drawn) [Compound 105, N-methyl-N′-(1-methyl-1H-indol-3-yl)-4-(trifluoromethyl)benzenesulfonimidamide]: the IC50 under setting [1] was 5 to 100 µM.
Under setting [1], `NS(=O)(=Nc1c[nH]c2ccccc12)c1ccc(C(F)(F)F)cc1` (stereo not drawn) [Compound 1, N′-(1H-indol-3-yl)-4-(trifluoromethyl)benzenesulfonimidamide] registered an IC50 of 0.2 to 1 µM.
In the case of `CCCCc1ccc(S(=N)(=O)Nc2ccc3cc[nH]c3c2)cc1` (stereo not drawn) [Compound 101], the IC50 under setting [1] was in the range of 5 to 100 µM.
Consider `NS(=O)(=Nc1c[nH]c2cc(F)c(F)cc12)c1ccc(C(F)(F)F)cc1` (stereo not drawn) [Compound 2], for which the IC50 under setting [1] was 1 to 5 µM.
`Cc1ccccc1S(N)(=O)=Nc1c[nH]c2ccccc12` (racemic) [Compound 110b] showed an IC50 (24h, class symbols) of 1 to 5 µM.
As to `N#Cc1cnc2[nH]cc(N=S(N)(=O)c3ccc(C(F)(F)F)cc3)c2c1` (stereo not drawn) [Compound 114], under setting [1], the concentration for half-maximal inhibition (IC50) lay within 5 to 100 µM.
As to `NS(=O)(=Nc1c[nH]nc1-c1ccccc1)c1ccc(C(F)(F)F)cc1` (stereo not drawn) [Compound 119], the IC50 under setting [2] was no less than 100 µM.
On to `Cc1ccc(S(N)(=O)=Nc2c[nH]c3ccccc23)cc1` (stereo not drawn) [Compound 111], for which, under setting [1], the IC50 fell in the range of 5 to 100 µM.

One may read the IC50 as the midpoint of a concentration-inhibition curve.
